Reference: patent publication US11414416B1, “Compounds and uses thereof” (Foghorn Therapeutics Inc., priority 2019, dated 2022)
Like-named read-outs stand apart in the source and are kept apart here.

Target: Nanoluciferase-BRD9 fusion protein (Homo sapiens (Human), UniProt Q9H8M2)
Test: SYO1 BRD9 NanoLuc degradation assay
Format: cell-based
Settings: SYO-1 cells expressing 3×FLAG-NLuc-BRD9, 6 hours, read-out: SYO1 BRD9-NanoLuc degradation IC50
Procedure, shortened: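 Degradation was read as loss of nanoluciferase signal (Nano-Glo) after 6 h compound exposure in a stable SYO-1 line carrying 3×FLAG-NLuc-BRD9 (8000 cells/well). Normalised between DMSO (high) and a 1 μM known BRD9 degrader (low).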

Nanoluciferase-BRD9 fusion protein, sequence (Q9H8M2 whole entry, the tested form may be a part): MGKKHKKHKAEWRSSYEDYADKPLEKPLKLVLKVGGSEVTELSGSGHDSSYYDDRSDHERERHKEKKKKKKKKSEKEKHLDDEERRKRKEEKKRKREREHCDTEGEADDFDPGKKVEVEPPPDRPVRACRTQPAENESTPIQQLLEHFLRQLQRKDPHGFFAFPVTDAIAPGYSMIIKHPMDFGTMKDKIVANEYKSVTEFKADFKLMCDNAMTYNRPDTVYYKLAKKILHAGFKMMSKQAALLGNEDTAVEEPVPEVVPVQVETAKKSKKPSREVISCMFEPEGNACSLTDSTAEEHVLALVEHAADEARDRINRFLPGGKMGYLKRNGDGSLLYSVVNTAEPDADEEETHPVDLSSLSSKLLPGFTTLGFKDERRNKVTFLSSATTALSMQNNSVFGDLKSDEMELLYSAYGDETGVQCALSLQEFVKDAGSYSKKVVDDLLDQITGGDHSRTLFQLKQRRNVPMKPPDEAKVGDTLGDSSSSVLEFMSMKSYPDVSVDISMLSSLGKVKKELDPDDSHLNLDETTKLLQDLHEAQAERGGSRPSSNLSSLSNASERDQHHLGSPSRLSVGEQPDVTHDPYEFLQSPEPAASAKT

Row | SMILES | DC50 (Table 5B) [nM] | DC50 (Table 5C) [nM]
1 | COc1cc(-c2cc(C#N)c(=O)n(C)c2)cc(OC)c1CN1CC(CN2CCC3(CC2)CN(c2ccc4c(c2)C(=O)N(C2CCC(=O)NC2=O)C4=O)C3)C1 (stereo not shown) [Compound D352] | > 1000 | –
2 | COc1cc(-c2cc(C)c(=O)n(C)c2)c(OC)cc1CN1CC(CN2CCC3(CC2)CN(c2ccc4c(c2)C(=O)N(C2CCC(=O)NC2=O)C4=O)C3)C1 (stereo not shown) [Compound D353] | < 10 | –
3 | COc1cc(-c2cn(C)c(=O)c(C)c2C)c(OC)cc1CN1CC(CN2CCC3(CC2)CN(c2ccc4c(c2)C(=O)N(C2CCC(=O)NC2=O)C4=O)C3)C1 (stereo not shown) [Compound D354] | < 10 | –
4 | CNC(=O)N(C)Cc1cc(-c2cc(OC)c(CN3CC(CN4CCC5(CC4)CN(c4ccc6c(c4)C(=O)N(C4CCC(=O)NC4=O)C6=O)C5)C3)c(OC)c2)cn(C)c1=O (stereo not shown) [Compound D355] | > 1000 | –
5 | COc1cc(-c2cn(C)c(=O)c3ccccc23)cc(OC)c1CN1CC(CN2CCC3(CC2)CN(c2ccc4c(c2)C(=O)N(C2CCC(=O)NC2=O)C4)C3)C1 (stereo not shown) [Compound D356] | < 10 | –
6 | COc1cc(-c2cc(C)c(=O)n(C)n2)cc(OC)c1CN1CCC2(CC1)CN(c1ccc3c(c1)CN(C1CCC(=O)NC1=O)C3=O)C2 (stereo not shown) [Compound D357] | < 10 | –
7 | COc1cc(-c2cc(C)c(=O)n(C)n2)cc(OC)c1CN1CCC2(CC1)CN(c1ccc3c(c1)C(=O)N(C1CCC(=O)NC1=O)C3)C2 (stereo not shown) [Compound D358] | < 10 | –
8 | COc1cc(-c2cc(C)c(=O)n(C)c2C)c(OC)cc1CN1CC(CN2CCC3(CC2)CN(c2ccc4c(c2)C(=O)N(C2CCC(=O)NC2=O)C4=O)C3)C1 (stereo not shown) [Compound D359] | < 10 | –
9 | COc1cc(-c2cn(C)c(=O)c3ccccc23)cc(OC)c1CN1CC(CN2CCC3(CC2)CN(c2ccc4c(c2)CN(C2CCC(=O)NC2=O)C4=O)C3)C1 (stereo not shown) [Compound D360] | < 10 | –
10 | COc1cc(-c2cn(C)c(=O)c3cncn23)cc(OC)c1CN1CC(CN2CCC3(CC2)CN(c2ccc4c(c2)C(=O)N(C2CCC(=O)NC2=O)C4)C3)C1 (stereo not shown) [Compound D361] | < 10 | –
11 | COc1cc(-c2cn(C)c(=O)c(C)c2C)cc(OC)c1CN1CCN(CCC2CCN(c3ccc4c(c3)CN(C3CCC(=O)NC3=O)C4=O)CC2)CC1 (stereo not shown) [Compound D362] | < 10 | –
12 | COc1cc(-c2cn(C)c(=O)c3cncn23)cc(OC)c1CN1CC(CN2CCC3(CC2)CN(c2ccc4c(c2)CN(C2CCC(=O)NC2=O)C4=O)C3)C1 (stereo not shown) [Compound D363] | < 10 | –
13 | CNC(=O)NCc1cc(-c2cc(OC)c(CN3CC(CN4CCC5(CC4)CN(c4ccc6c(c4)C(=O)N(C4CCC(=O)NC4=O)C6)C5)C3)c(OC)c2)cn(C)c1=O (stereo not shown) [Compound D364] | 100 to 1000 | –
14 | COc1cc(-c2cn(C)c(=O)n3ccnc23)cc(OC)c1CN1CC(CN2CCC3(CC2)CN(c2ccc4c(c2)C(=O)N(C2CCC(=O)NC2=O)C4)C3)C1 (stereo not shown) [Compound D365] | 10 to 100 | –
15 | COc1cc(-c2cn(C)c(=O)c3ccnnc23)cc(OC)c1CN1CCC(CN2CCC3(CC2)CC(Oc2ccc4c(c2)CN(C2CCC(=O)NC2=O)C4=O)C3)CC1 (stereo not shown) [Compound D366] | < 10 | –
16 | COc1cc(-c2cn(C)c(=O)c3cnncc23)cc(OC)c1CN1CCC(CN2CCC3(CC2)CC(Oc2ccc4c(c2)CN(C2CCC(=O)NC2=O)C4=O)C3)CC1 (stereo not shown) [Compound D367] | < 10 | –
17 | COc1cc(-c2cn(C)c(=O)c3cnncc23)cc(OC)c1CN1CCC(CN2CCC3(CC2)CC(Oc2ccc4c(c2)C(=O)N(C2CCC(=O)NC2=O)C4)C3)CC1 (stereo not shown) [Compound D368] | < 10 | –

Row | SMILES | DC50 (Table 5B) [nM] | DC50 (Table 5C) [nM]
18 | COc1cc(-c2cn(C)c(=O)c3cnn(C)c23)cc(OC)c1CN1CC(CN2CCC3(CC2)CN(c2ccc4c(c2)CN(C2CCC(=O)NC2=O)C4=O)C3)C1 (stereo not shown) [Compound D369] | < 10 | –
19 | COc1cc(-c2cn(C)c(=O)c3cn(C)nc23)cc(OC)c1CN1CC(CN2CCC3(CC2)CN(c2ccc4c(c2)CN(C2CCC(=O)NC2=O)C4=O)C3)C1 (stereo not shown) [Compound D370] | < 10 | –
20 | COc1cc(-c2cn(C)c(=O)c3nc(O)ccc23)cc(OC)c1CN1CCC(CN2CCC3(CC2)CC(Oc2ccc4c(c2)CN(C2CCC(=O)NC2=O)C4=O)C3)CC1 (stereo not shown) [Compound D371] | < 10 | –
21 | COc1cc(-c2cn(C)c(=O)c3cnccc23)cc(OC)c1CN1CCC(CN2CCC3(CN(c4ccc5c(c4)CN(C4CCC(=O)NC4=O)C5=O)C3)C(F)(F)C2)CC1 (stereo not shown) [Compound D379] | – | < 10
22 | COc1cc(C(=O)N2CCC3(CC2)CN(c2ccc4c(c2)C(=O)N(C2CCC(=O)NC2=O)C4)C3)cc(-c2cn(C)c(=O)c3cnccc23)c1 (stereo not shown) [Compound D380] | – | 10 to 100
23 | COc1cc(CN2CCC3(CC2)CN(c2ccc4c(c2)C(=O)N(C2CCC(=O)NC2=O)C4)C3)cc(-c2cn(C)c(=O)c3cnccc23)c1 (stereo not shown) [Compound D387] | – | < 10
24 | COc1cc(-c2cn(C)c(=O)c3cnccc23)cc(OC)c1CN1CCC2(CC1)CN(c1ccc3c(c1)C(=O)N(C1CCC(=O)NC1)C3)C2 (stereo not shown) [Compound D390] | – | > 1000
25 | COc1cc(-c2cn(C)c(=O)c3cnccc23)cc(OC)c1CN1CCC2(CC1)CN(c1ccnc(C(=O)NC3CCC(=O)NC3=O)n1)C2 (stereo not shown) [Compound D391] | – | 100 to 1000
26 | COc1cc(-c2cn(C)c(=O)c3cnccc23)cc(OC)c1CN1CCC2(CC1)CN(c1cccc(C(=O)NC3CCC(=O)NC3=O)c1)C2 (stereo not shown) [Compound D392] | – | 10 to 100
27 | COc1cc(-c2cn(C)c(=O)c3cnccc23)cc(OC)c1CN1CCC2(CC1)CN(c1cc(C(=O)NC3CCC(=O)NC3=O)ncn1)C2 (stereo not shown) [Compound D395] | – | < 10
28 | COc1cc(-c2cc(C)c(=O)n(C)c2C)cc(OC)c1CN1CCC2(C1)CN(c1ccc3c(c1)C(=O)N(C1CCC(=O)NC1=O)C3)C2 (stereo not shown) [Compound D396] | – | < 10
29 | COc1cc(-c2cc(C)c(=O)n(C)c2C)cc(OC)c1CN1CCC(CN2CCC3(CC2)CN(c2ccc4c(c2)C(=O)N(C2CCC(=O)NC2=O)C4)C3)CC1 (stereo not shown) [Compound D397] | – | < 10
30 | COc1cc(-c2cc(C(F)F)c(=O)n(C)c2)cc(OC)c1CN1CCN(CCC2CCN(c3ccc4c(c3)C(=O)N(C3CCC(=O)NC3=O)C4=O)CC2)CC1 (stereo not shown) [Compound D398] | – | < 10
31 | COc1cc(-c2cc(C(F)F)c(=O)n(C)c2)cc(OC)c1CN1CCN(CCC2CCN(c3ccc4c(c3)C(=O)N(C3CCC(=O)NC3=O)C4)CC2)CC1 (stereo not shown) [Compound D399] | – | < 10
32 | COc1cc(-c2cn(C)c(=O)c3cn(C)nc23)cc(OC)c1CN1CCN(CCC2CCN(c3ccc4c(c3)C(=O)N(C3CCC(=O)NC3=O)C4)CC2)CC1 (stereo not shown) [Compound D400] | – | < 10
33 | CCCn1cc(-c2cc(OC)c(CN3CCC4(C3)CN(c3ccc5c(c3)C(=O)N(C3CCC(=O)NC3=O)C5)C4)c(OC)c2)cc(C(F)F)c1=O (stereo not shown) [Compound D401] | – | < 10
34 | COc1cc(-c2cn(C)c(=O)c3cn(C)nc23)cc(OC)c1CN1CC(CN2CCC3(CC2)CN(c2ccc4c(c2)C(=O)N(C2CCC(=O)NC2=O)C4)C3)C1 (stereo not shown) [Compound D402] | – | < 10

The remaining lines, values ahead:

Row | DC50 (Table 5B) [nM] | DC50 (Table 5C) [nM] | SMILES
35 | > 1000 | – | COc1cc(-c2cn(C)c(=O)c(C#N)c2C)cc(OC)c1CN1CC(CN2CCC3(CC2)CN(c2ccc4c(c2)C(=O)N(C2CCC(=O)NC2=O)C4=O)C3)C1 (stereo not shown) [Compound D351]
36 | – | < 10 | COc1cc(-c2cn(C)c(=O)c3cnccc23)cc(OC)c1CN1CC(Oc2ccc3c(c2)C(=O)N(C2CCC(=O)NC2=O)C3=O)C1 (stereo not shown) [Compound D372]
37 | – | < 10 | COc1cc(-c2cn(C)c(=O)c3cnccc23)cc(OC)c1CN1CCC2(CC1)CN(c1ccc3c(c1)C(=O)N(C1CCC(=O)NC1=O)C3=O)C2 (stereo not shown) [Compound D373]
38 | – | < 10 | COc1cc(-c2cn(C)c(=O)c3cnccc23)cc(OC)c1CN1CCC2(CC1)CN(c1ccc3c(c1)CN(C1CCC(=O)NC1=O)C3=O)C2 (stereo not shown) [Compound D374]
39 | – | < 10 | COc1cc(-c2cn(C)c(=O)c3cnccc23)cc(OC)c1CN1CC(Oc2ccc3c(c2)CN(C2CCC(=O)NC2=O)C3=O)C1 (stereo not shown) [Compound D375]
40 | – | < 10 | COc1cc(-c2cn(C)c(=O)c3cnccc23)cc(OC)c1CN1CC(Oc2ccc3c(c2)C(=O)N(C2CCC(=O)NC2=O)C3=O)C1C (stereo not shown) [Compound D376]
41 | – | < 10 | COc1cc(-c2cn(C)c(=O)c3cnccc23)cc(OC)c1CN1CCC2(CC1)CN(c1ccc3c(c1)C(=O)N(C1CCC(=O)NC1=O)C3)C2 (stereo not shown) [Compound D377]
42 | – | < 10 | COc1cc(-c2cn(C)c(=O)c3cnccc23)cc(OC)c1CN1CC(Oc2ccc3c(c2)C(=O)N(C2CCC(=O)NC2=O)C3)C1 (stereo not shown) [Compound D378]
43 | – | < 10 | COc1cc(-c2cn(C)c(=O)c3cnccc23)cc(OC)c1CN1CC(Oc2ccc3c(c2)C(=O)N(C2CCC(=O)N(COC(=O)[C@@H](N)C(C)C)C2=O)C3=O)C1 (stereo partly shown) [Compound D381]
44 | – | < 10 | COc1cc(-c2cn(C)c(=O)c3cnccc23)cc(OC)c1CN1CCC2(CC1)CN(c1ccc3c(c1)C(=O)N(C1CC(=O)NC1=O)C3)C2 (stereo not shown) [Compound D382]
45 | – | > 1000 | COc1cc(-c2cn(C)c(=O)c3cnccc23)cc(OC)c1CN1CCC2(CC1)CN(c1ccc3c(c1)C(=O)N(C1CC(=O)NC1=O)C3=O)C2 (stereo not shown) [Compound D383]
46 | – | < 10 | COc1cc(-c2cn(C)c(=O)c3cnccc23)cc(OC)c1CN1CC(Oc2ccc3c(c2)CN(C2CCC(=O)N(COC(=O)[C@@H](N)C(C)C)C2=O)C3=O)C1 (stereo partly shown) [Compound D384]
47 | – | < 10 | CCc1cc(-c2cn(C)c(=O)c3cnccc23)cc(OC)c1CN1CC(Oc2ccc3c(c2)C(=O)N(C2CCC(=O)NC2=O)C3=O)C1 (stereo not shown) [Compound D385]
48 | – | < 10 | CCc1cc(-c2cn(C)c(=O)c3cnccc23)cc(OC)c1CN1CC(Oc2ccc3c(c2)C(=O)N(C2CCC(=O)NC2=O)C3=O)C1C (stereo not shown) [Compound D386]
49 | – | < 10 | COc1cc(-c2cn(C)c(=O)c3cnccc23)cc(OC)c1CN1CCC2(CC1)CN(c1ccc3c(c1)C(=O)N(C1CCCC(=O)NC1=O)C3=O)C2 (stereo not shown) [Compound D388]
50 | – | > 1000 | COc1cc(-c2cn(C)c(=O)c3cnccc23)cc(OC)c1CN1CCC2(CC1)CN(c1ccc3c(c1)C(=O)N(C1CCCNC1=O)C3)C2 (stereo not shown) [Compound D389]
51 | – | 10 to 100 | COc1cc(-c2cn(C)c(=O)c3cnccc23)cc(OC)c1CN1CCC(c2cnn(C3CCC(=O)NC3=O)c2)CC1 (stereo not shown) [Compound D393]
52 | – | > 1000 | COc1cc(-c2cn(C)c(=O)c3cnccc23)cc(OC)c1CN1CCC(c2cc(=O)n(C3CCC(=O)NC3=O)c(C)n2)CC1 (stereo not shown) [Compound D394]
